Results from US9932637B2, “Genetic polymorphisms associated with cardiovascular disorders and drug response, methods of detection and uses thereof” (CELERA CORPORATION, priority 2003, dated 2018).

Test system: patients with prior myocardial infarction (CARE study)
Assay: CARE: association of SNPs with pravastatin treatment in cardiovascular events prevention (logistic regression, odds ratio pravastatin vs placebo by genotype; Table 8)
Assay type: in vivo, human
Settings: All Patients; for Coronary Artery Bypass or Revascularization, n/total (%) / Total Coronary Heart Disease Events, n/total (%) / Fatal/Non-fatal Atherosclerotic CV Disease, n/total (%) / Hosp. for Cardiovascular Disease, n/total (%) / Total Cardiovascular Disease Events, n/total (%) / Fatal/Non-fatal MI (def & prob), n/total (%) / Fatal CHD/Definite Non-fatal MI, n/total (%) / Non-fatal MI (def & prob), n/total (%): Prava
From the text: In order to identify genetic markers associated with acute coronary events (e.g. MI, stroke, unstable angina, congestive heart failure, etc.) or response to statin treatment for the prevention of coronary events, samples from the Cholesterol and Recurrent Events (CARE) study (a randomized multicentral double-blinded trial on secondary prevention of acute coronary events with pravastatin) (Sacks et al., 1991, Am. J. Cardiol. 68: 1436-1446) were genotyped. A well-documented myocardial infarction (MI) was one of the enrollment criteria for entry into the CARE study. Patients were enrolled in the CARE trial from 80 participating study centers. […] Patients were randomized to receive either 40 mg of pravastatin once daily or a matching placebo. The primary endpoint of the trial was death from coronary heart disease and the median duration of follow-up was 5.0 years (range, 4.0 to 6.2 years). […] Secondary endpoints of other related cardiovascular or metabolic disease events, and changes in clinical variables were also recorded in pravastatin-treated and placebo groups. All individuals included in the study had signed a written informed consent form and the study protocol was approved by the respective Institutional Review Boards (IRBs).
For genotyping SNPs in CARE patient samples, DNA was extracted from blood samples using conventional DNA extraction methods such as the QIA-amp kit from Qiagen. Genotypes were obtained on an ABI PRISM® 7900HT Sequence Detection PCR system (Applied Biosystems, Foster City, Calif.) by kinetic allele-specific PCR, similar to the method described by Germer et al. (Germer S., Holland M. J., Higuchi R. 2000, Genome Res. 10: 258-266).
Statistical analysis for association of SNPs with pravastatin treatment in cardiovascular events prevention (Table 8) was carried out using an overall logistic regression model that included an intercept, a parameter for the effect of a genotype containing two rare alleles versus a genotype containing no rare alleles, a parameter for the effect of a genotype containing one rare allele versus a genotype containing no rare alleles, a parameter for the effect of use of pravastatin versus the use of placebo, and parameters for the interaction effects between SNP genotypes and pravastatin use. The test of the overall model is a chi-square test with two degrees of freedom for analyses containing all three genotypes, and one degree of freedom for analyses containing two genotypes.
Effect sizes were estimated through odds ratios (pravastatin group versus placebo) for carriers of each genotype (groups of 0, 1, and 2 minor allele carriers). The effect was considered to be significant if p-value for testing whether any of the interactions between SNP genotypes and pravastatin use were <0.05. […] Odds ratios less than one indicate that the specific SNP allele has a protective effect and odds ratios greater than one indicate that the specific SNP allele has an adverse effect.

[1] = HLA-DPB1 hCV8851085, Coronary Artery Bypass or Revascularization
[2] = HLA-DPB1 hCV8851085, Fatal/Non-fatal Atherosclerotic CV Disease
[3] = HLA-DPB1 hCV8851085, Fatal/Non-fatal MI (def & prob)
[4] = HLA-DPB1 hCV8851085, Hosp. for Cardiovascular Disease
[5] = HLA-DPB1 hCV8851085, Total Cardiovascular Disease Events
[6] = HLA-DPB1 hCV8851085, Total Coronary Heart Disease Events
[7] = HLA-DPB1 hCV25651174, 2 Rare Alleles, n/total 20/144

## CC[C@H](C)C(=O)O[C@H]1C[C@H](O)C=C2C=C[C@H](C)[C@H](CC[C@@H](O)C[C@@H](O)CC(=O)O)[C@H]21 [pravastatin]
HLA-DPB1 hCV8851085, 0 Rare Alleles, n/total 129/919
  Coronary Artery Bypass or Revascularization, n/total (%): (14.0%)
HLA-DPB1 hCV8851085, 0 Rare Alleles, n/total 263/919
  Total Coronary Heart Disease Events, n/total (%): (28.6%)
HLA-DPB1 hCV8851085, 0 Rare Alleles, n/total 301/919
  Fatal/Non-fatal Atherosclerotic CV Disease, n/total (%): (32.8%)
HLA-DPB1 hCV8851085, 0 Rare Alleles, n/total 363/919
  Hosp. for Cardiovascular Disease, n/total (%): (39.5%)
HLA-DPB1 hCV8851085, 0 Rare Alleles, n/total 374/919
  Total Cardiovascular Disease Events, n/total (%): (40.7%)
HLA-DPB1 hCV8851085, 1 Rare Allele, n/total 53/521
  Fatal/Non-fatal MI (def & prob), n/total (%): (10.2%)
HLA-DPB1 hCV8851085, 1 Rare Allele, n/total 72/521
  Coronary Artery Bypass or Revascularization, n/total (%): (13.8%)
HLA-DPB1 hCV8851085, 1 Rare Allele, n/total 151/521
  Total Coronary Heart Disease Events, n/total (%): (29.0%)
HLA-DPB1 hCV8851085, 1 Rare Allele, n/total 174/521
  Fatal/Non-fatal Atherosclerotic CV Disease, n/total (%): (33.4%)
HLA-DPB1 hCV8851085, 1 Rare Allele, n/total 209/521
  Hosp. for Cardiovascular Disease, n/total (%): (40.1%)
HLA-DPB1 hCV8851085, 1 Rare Allele, n/total 214/521
  Total Cardiovascular Disease Events, n/total (%): (41.1%)
HLA-DPB1 hCV8851085, 2 Rare Alleles, n/total 11/73
  Fatal/Non-fatal MI (def & prob), n/total (%): (15.1%)
HLA-DPB1 hCV8851085, 2 Rare Alleles, n/total 17/73
  Coronary Artery Bypass or Revascularization, n/total (%): (23.3%)
HLA-DPB1 hCV8851085, 2 Rare Alleles, n/total 26/73
  Total Coronary Heart Disease Events, n/total (%): (35.6%)
HLA-DPB1 hCV8851085, 2 Rare Alleles, n/total 29/73
  Fatal/Non-fatal Atherosclerotic CV Disease, n/total (%): (39.7%)
HLA-DPB1 hCV8851085, 2 Rare Alleles, n/total 33/73
  Hosp. for Cardiovascular Disease, n/total (%): (45.2%)
HLA-DPB1 hCV8851085, 2 Rare Alleles, n/total 35/73
  Total Cardiovascular Disease Events, n/total (%): (47.9%)
[1]
  Prava vs. Placebo Odds Ratio, 0 Rare Alleles: 0.68
  Prava vs. Placebo Odds Ratio, 1 Rare Alleles: 0.60
  Prava vs. Placebo Odds Ratio, 2 Rare Alleles: 3.54
[2]
  Prava vs. Placebo Odds Ratio, 0 Rare Alleles: 0.70
  Prava vs. Placebo Odds Ratio, 1 Rare Alleles: 0.79
  Prava vs. Placebo Odds Ratio, 2 Rare Alleles: 2.12
[3]
  Prava vs. Placebo Odds Ratio, 0 Rare Alleles: 0.57
  Prava vs. Placebo Odds Ratio, 1 Rare Alleles: 0.75
  Prava vs. Placebo Odds Ratio, 2 Rare Alleles: 2.07
[4]
  Prava vs. Placebo Odds Ratio, 0 Rare Alleles: 0.71
  Prava vs. Placebo Odds Ratio, 1 Rare Alleles: 0.74
  Prava vs. Placebo Odds Ratio, 2 Rare Alleles: 1.79
[5]
  Prava vs. Placebo Odds Ratio, 0 Rare Alleles: 0.70
  Prava vs. Placebo Odds Ratio, 1 Rare Alleles: 0.74
  Prava vs. Placebo Odds Ratio, 2 Rare Alleles: 1.77
[6]
  Prava vs. Placebo Odds Ratio, 0 Rare Alleles: 0.72
  Prava vs. Placebo Odds Ratio, 1 Rare Alleles: 0.76
  Prava vs. Placebo Odds Ratio, 2 Rare Alleles: 2.25
HLA-DPB1 hCV25651174, 0 Rare Alleles, n/total 58/733
  Fatal CHD/Definite Non-fatal MI, n/total (%): (7.9%)
HLA-DPB1 hCV25651174, 0 Rare Alleles, n/total 63/733
  Non-fatal MI (def & prob), n/total (%): (8.6%)
HLA-DPB1 hCV25651174, 0 Rare Alleles, n/total 65/733
  Fatal/Non-fatal MI (def & prob), n/total (%): (8.9%)
HLA-DPB1 hCV25651174, 0 Rare Alleles, n/total 103/733
  Coronary Artery Bypass or Revascularization, n/total (%): (14.1%)
HLA-DPB1 hCV25651174, 0 Rare Alleles, n/total 207/733
  Total Coronary Heart Disease Events, n/total (%): (28.2%)
HLA-DPB1 hCV25651174, 0 Rare Alleles, n/total 230/733
  Fatal/Non-fatal Atherosclerotic CV Disease, n/total (%): (31.4%)
HLA-DPB1 hCV25651174, 0 Rare Alleles, n/total 282/733
  Hosp. for Cardiovascular Disease, n/total (%): (38.5%)
HLA-DPB1 hCV25651174, 0 Rare Alleles, n/total 291/733
  Total Cardiovascular Disease Events, n/total (%): (39.7%)
HLA-DPB1 hCV25651174, 1 Rare Allele, n/total 55/632
  Non-fatal MI (def & prob), n/total (%): (8.7%)
HLA-DPB1 hCV25651174, 1 Rare Allele, n/total 61/632
  Fatal/Non-fatal MI (def & prob), n/total (%): (9.7%)
HLA-DPB1 hCV25651174, 1 Rare Allele, n/total 62/632
  Fatal CHD/Definite Non-fatal MI, n/total (%): (9.8%)
HLA-DPB1 hCV25651174, 1 Rare Allele, n/total 87/632
  Coronary Artery Bypass or Revascularization, n/total (%): (13.8%)
HLA-DPB1 hCV25651174, 1 Rare Allele, n/total 182/632
  Total Coronary Heart Disease Events, n/total (%): (28.8%)
HLA-DPB1 hCV25651174, 1 Rare Allele, n/total 218/632
  Fatal/Non-fatal Atherosclerotic CV Disease, n/total (%): (34.5%)
HLA-DPB1 hCV25651174, 1 Rare Allele, n/total 259/632
  Hosp. for Cardiovascular Disease, n/total (%): (41.0%)
HLA-DPB1 hCV25651174, 1 Rare Allele, n/total 265/632
  Total Cardiovascular Disease Events, n/total (%): (41.9%)
HLA-DPB1 hCV25651174, 2 Rare Alleles, n/total 16/144
  Non-fatal MI (def & prob), n/total (%): (11.1%)
[7]
  Fatal CHD/Definite Non-fatal MI, n/total (%): (13.9%)
  Fatal/Non-fatal MI (def & prob), n/total (%): (13.9%)
HLA-DPB1 hCV25651174, 2 Rare Alleles, n/total 27/144
  Coronary Artery Bypass or Revascularization, n/total (%): (18.8%)
HLA-DPB1 hCV25651174, 2 Rare Alleles, n/total 50/144
  Total Coronary Heart Disease Events, n/total (%): (34.7%)
HLA-DPB1 hCV25651174, 2 Rare Alleles, n/total 54/144
  Fatal/Non-fatal Atherosclerotic CV Disease, n/total (%): (37.5%)
HLA-DPB1 hCV25651174, 2 Rare Alleles, n/total 61/144
  Hosp. for Cardiovascular Disease, n/total (%): (42.4%)
